From patent publication US7816389B2, “Organic compounds” (Nabriva Therapeutics Forschungs GmbH, priority 2006, dated 2010) come the findings set out here.

Converted amounts (≈) assume the structure as drawn.

Format in all cases: cell-based
Assay [1] relates to Enterococcus faecalis ATCC29212 B4. Kind of assay: MIC determination according to CLSI. Conditions: ATCC29212, strain B4. An excerpt: (§1) For example, the compounds of the present invention show antimicrobial, e.g. antibacterial, activity against gram positive bacteria, such as coagulase-positive and coagulase-negative Staphylococci, e.g. Staphylococcus aureus, Styphylococcus epidermis, Staphylococcus haemolyticus, Streptococci, e.g. Streptococcus pyogenes, Streptococcus pneumoniae, Streptococcus agalacticae, Enterococci, e.g. Enterococcus faecium and Moraxellaceae, e.g. Moraxella catarrhalis, Pasteurellaceae, e.g. Haemophilus influenzae, as well as against Mycoplasmactaceae, Chlamydiaceae, e.g. Chlamydia trachomatis, Chlamydia pneumoniae and obligatory anaerobes, e.g. Bacteroides fragilis, Clostridium difficile; in vitro in the Agar Dilution Test or Microdilution Test according to the Climical and Laboratory Standards Institute (CLSI, former National Commitee for Clinical Laboratory Standards (NCCLS) 2006, Document M7-A7 Vol. 26, No. 2: “Methods for dilution Antimicrobial Susceptibility Tests for Bacteria that Grow Aerobically—Seventh Edition, Approved Standard”; and in the in vitro determination of the antibacterial activity against anaerobic bacteria according to National Committee for Clinical Laboratory Standards (NCCLS) VOL. 24, No. 2, M11-A5, Methods for Antimicrobal Susceptibility Testing of Anaerobic Bacteria; Approved Standard; Sixth Edition (2004) and in vivo in the septicaemic mouse model against Staphylococcus aureus.
(§2) The antibacterial activity expressed as minimal inhibitory concentration (MIC) was determined according to the approved standard reference recommendations of CLSI (former NCCLS).

The subject of assay [2] is Enterococcus faecalis ATCC51299 B5. The assay can be described thus: MIC determination according to CLSI. The settings on record: ATCC51299, strain B5.
Source text: as §1, §2

Assay [3] relates to Escherichia coli ATCC25922 B1. Kind of assay: MIC determination according to CLSI. Conditions: ATCC25922, strain B1.
Source text: as §1, §2

Assay [4] concerns Moraxella catarrhalis ATCC43618 B407. The assay can be described thus: MIC determination according to CLSI. The settings on record: ATCC43618, strain B407.
Source text: as §1, §2

Assay [5] deals with Staphylococcus aureus (MSSA) ATCC10390 B6. Kind of assay: MIC determination according to CLSI. Conditions: ATCC10390, strain B6.
Source text: as §1, §2

Assay [6] has as its system Staphylococcus aureus (MSSA) ATCC29213 B7. The assay can be described thus: MIC determination according to CLSI. The settings on record: ATCC29213, strain B7.
Source text: as §1, §2

Assay [7] has as its system Streptococcus pneumoniae ATCC49619 B11. The assay can be described thus: MIC determination according to CLSI. Conditions: ATCC49619, strain B11.
Source text: as §1, §2

Assay [8] concerns Staphylococcus aureus, Enterococcus faecalis, Streptococcus pneumoniae, Moraxelia catarrhalis and Escherichia coli. The assay can be described thus: MIC determination according to CLSI, panel of pathogens. The protocol:
as §2

On to `C=C[C@]1(C)C[C@@H](OC(=O)CSc2cccc(CO)c2)[C@]2(C)C(C)CCC3(CCC(=O)C32)[C@@H](C)[C@@H]1O` (stereo partly shown) [Example 1, 14-O-[(3-Hydroxymethyl-phenylsulfanyl)-acetyl]-mutilin], for which the MIC (in general, the lowest concentration found to suppress growth) in assay [1] was 6.4 µg/mL (≈ 12.8 µM); in assay [2], 6.4 µg/mL (≈ 12.8 µM); in assay [3], 12.8 µg/mL (≈ 25.6 µM); in assay [4], no more than 0.0125 µg/mL; in assay [5] it was no more than 0.0125 µg/mL; in assay [6], no more than 0.0125 µg/mL. Also, in assay [7], the MIC was 0.01 µg/mL (≈ 0.02 µM). The “antibacterial activity (in vitro)” value in assay [8] (against at least one of the clinical relevant bacterial pathogens) was “very good activity”. Moreover, the “factor by which MICs are lower than the MICs of Example 2” value in assay [8] (against at least one of the strains shown in Table 1) was no less than 2.
As to `C=C[C@]1(C)C[C@@H](OC(=O)CSc2ccc(C)cc2)[C@]2(C)C(C)CCC3(CCC(=O)C32)[C@@H](C)[C@@H]1O` (stereo partly shown) [Example 2, 14-O-[(4-Methyl-phenylsulfanyl)-acetyl]-mutilin, reference compound], the MIC in assay [1] is greater than 25.6 µg/mL; in assay [2], greater than 25.6 µg/mL; in assay [3] it was greater than 25.6 µg/mL; in assay [4], no more than 0.0125 µg/mL; in assay [5] it was 0.025 µg/mL (≈ 0.0516 µM); in assay [6], 0.025 µg/mL (≈ 0.0516 µM). In addition, the MIC in assay [7] came to 0.16 µg/mL (≈ 0.33 µM).
